We go through 37 molecules from PubChem BioAssay AID1247 (Sanford-Burnham Center for Chemical Genomics, 2008).

pEC50: −log10 of the molar value. Active and inactive are the calls of the source.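 Rule for the calls: active = EC50 below a set limit, with activity reproduced on retest from dry powder; inactive = the rest.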

In this assay the test system is CSM 14.1 cells, thapsigargin ER-stress death rescue, ATPlite 24 h. The assay can be described thus: potency of ER stress death protectors, SAR follow-up, CSM14.1 cells, ATP luminescence, benzodiazepine series (AID 1247).
Regarding `COc1ccc(C2CC(=O)C3=C(C2)Nc2ccccc2NC3c2ccccc2C)cc1OC` (configuration not stated), the negative-log EC50 (pEC50) (usually the negative decadic logarithm of the EC50, by convention in mol/L) was 4.45.

In the case of `CCCCOc1ccccc1C1Nc2ccccc2NC2=C1C(=O)CC(c1ccccc1)C2` (configuration not stated), the negative logarithm of the EC50 (pEC50) was 4.88.

For the molecule `COc1ccc(C2CC(=O)C3=C(C2)Nc2ccccc2NC3c2ccc3ccccc3c2)cc1` (configuration not stated), the negative-log EC50 (pEC50) was 4.94.

Take `COc1ccc(C2CC(=O)C3=C(C2)Nc2ccccc2NC3c2ccccc2C(F)(F)F)cc1OC` (configuration not stated): the pEC50 was 4.76.

For the molecule `COc1ccc(C2CC(=O)C3=C(C2)Nc2ccccc2NC3c2ccccc2Cl)cc1OC` (configuration not stated), the negative logarithm of the EC50 (pEC50) was 4.39.

Take `CCN(CC)c1ccc(C2Nc3ccccc3NC3=C2C(=O)CC(c2ccccc2)C3)cc1` (configuration not stated): the pEC50 was 5.15.

For `COc1ccc(C2CC(=O)C3=C(C2)Nc2ccccc2NC3c2cccc(C(F)(F)F)c2)cc1OC` (configuration not stated), the negative logarithm of the EC50 (pEC50) is 4.78.

For the molecule `CCOc1cc(C2Nc3ccccc3NC3=C2C(=O)CC(c2ccc(OC)cc2)C3)cc(Br)c1O` (configuration not stated), the negative logarithm of the EC50 (pEC50) was 4.75.

Regarding `O=C1CC(c2ccccc2)CC2=C1C(c1c(F)cccc1Cl)Nc1ccccc1N2` (configuration not stated), the negative-log EC50 (pEC50) is 4.74.

In the case of `COc1ccc(C2CC(=O)C3=C(C2)Nc2ccccc2NC3c2ccc(O)cc2)cc1` (configuration not stated), the EC50 (usually the midpoint of the concentration-response curve) is > 100 µM (inactive).

As for `CCCOc1ccc(C2Nc3ccccc3NC3=C2C(=O)CC(c2ccc(OC)c(OC)c2)C3)cc1` (configuration not stated), the negative-log EC50 (pEC50) is 4.79.

As for `COc1ccc(C2CC(=O)C3=C(C2)Nc2ccccc2NC3c2cccc(Oc3ccccc3)c2)cc1OC` (configuration not stated), the negative-log EC50 (pEC50) was 5.09.

`COc1ccc(C2CC(=O)C3=C(C2)Nc2ccccc2NC3c2ccc(C)cc2)cc1OC` (configuration not stated): the pEC50 was 4.55.

With `COc1ccc(C2CC(=O)C3=C(C2)Nc2ccccc2NC3c2ccncc2)cc1OC` (configuration not stated), the EC50 is > 100 µM (inactive).

In the case of `COc1ccc(C2CC(=O)C3=C(C2)Nc2ccccc2NC3c2c(F)cccc2F)cc1` (configuration not stated), the pEC50 is 4.48.

Consider `CCOc1cccc(C2Nc3ccccc3NC3=C2C(=O)CC(c2ccc(OC)cc2)C3)c1` (configuration not stated), for which the pEC50 was 4.69.

As for `CC(C)Oc1ccccc1C1Nc2ccccc2NC2=C1C(=O)CC(c1ccc(Cl)cc1)C2` (configuration not stated), the pEC50 is 5.22.

On to `CCN(CC)c1ccc(C2Nc3ccccc3NC3=C2C(=O)CC(c2ccc(OC)cc2)C3)cc1` (configuration not stated), for which the pEC50 was 5.07.

On to `COc1ccc(C2CC(=O)C3=C(C2)Nc2ccccc2NC3c2ccccc2[N+](=O)[O-])cc1OC` (configuration not stated), for which the negative logarithm of the EC50 (pEC50) is 4.43.

For `CCOc1cc(C2Nc3ccccc3NC3=C2C(=O)CC(c2ccc(OC)cc2)C3)cc(Cl)c1O` (configuration not stated), the pEC50 was 4.63.

With `COc1ccc(C2CC(=O)C3=C(C2)Nc2ccccc2NC3c2ccc(C(C)C)cc2)cc1` (configuration not stated), the pEC50 is 5.09.

As for `COc1ccc(C2CC(=O)C3=C(C2)Nc2ccccc2NC3c2ccc(NC(C)=O)cc2)cc1` (configuration not stated), the EC50 was > 100 µM (inactive).

For the molecule `COc1ccc(C2CC(=O)C3=C(C2)Nc2ccccc2NC3c2cc(C)ccc2C)cc1` (configuration not stated), the pEC50 is 4.76.

For `O=C1CC(c2ccccc2)CC2=C1C(c1cccc3ccccc13)Nc1ccccc1N2` (configuration not stated), the pEC50 is 4.80.

For the molecule `COc1ccc(C2CC(=O)C3=C(C2)Nc2ccccc2NC3c2cccc(Cl)c2)cc1` (configuration not stated), the pEC50 is 4.68.

Take `Cc1ccc(C2Nc3ccccc3NC3=C2C(=O)CC(c2ccccc2)C3)cc1` (configuration not stated): the pEC50 is 4.72.

As for `COc1ccc(C2CC(=O)C3=C(C2)Nc2ccccc2NC3c2ccc(F)c(F)c2)cc1` (configuration not stated), the negative logarithm of the EC50 (pEC50) was 4.68.

`COc1ccc(C2CC(=O)C3=C(C2)Nc2ccccc2NC3c2c(Cl)cccc2Cl)cc1` (configuration not stated): the negative-log EC50 (pEC50) is 4.61.

Take `COc1ccc(C2CC(=O)C3=C(C2)Nc2ccccc2NC3c2ccc(-c3ccccc3)cc2)cc1OC` (configuration not stated): the pEC50 is 4.83.

Consider `COc1ccc(C2CC(=O)C3=C(C2)Nc2ccccc2NC3c2cccc(O)c2)cc1` (configuration not stated), for which the EC50 is > 100 µM (inactive).

`COc1ccc(C2CC(=O)C3=C(C2)Nc2ccccc2NC3c2ccccc2OC(C)C)cc1` (configuration not stated): the negative-log EC50 (pEC50) was 4.75.

`O=C1CC(c2ccccc2)CC2=C1C(c1ccc(Cl)cc1Cl)Nc1ccccc1N2` (configuration not stated): the EC50 was > 100 µM (inactive).

Take `COc1ccc(C2CC(=O)C3=C(C2)Nc2ccccc2NC3c2cccc(Br)c2)cc1OC` (configuration not stated): the pEC50 was 4.77.

Take `COc1ccc(C2CC(=O)C3=C(C2)Nc2ccccc2NC3c2c(F)cccc2Cl)cc1` (configuration not stated): the pEC50 was 4.87.

As to `CSc1ccc(C2Nc3ccccc3NC3=C2C(=O)CC(c2ccccc2)C3)cc1` (configuration not stated), the pEC50 is 4.86.

With `COc1ccc(C2Nc3ccccc3NC3=C2C(=O)CC(c2ccc(Cl)cc2)C3)cc1` (configuration not stated), the pEC50 is 4.96.

Regarding `Cc1ccc(C2Nc3ccccc3NC3=C2C(=O)CC(c2ccc(Cl)cc2)C3)cc1` (configuration not stated), the pEC50 was 5.01.
